Results taken from patent publication US20220347075A1, “PEPTIDE BASED COSMETIC OR DERMATOLOGICAL TREATMENT OF THE SKIN AND ITS APPENDAGES” (Sederma, priority 2019, published 2022).
Residues, ends and D or L forms follow the SMILES beside them. *: point of attachment. Palmitoyl = CCCCCCCCCCCCCCCC(=O)*

Legend:
Format in all cases: cell-based
[1] = system: normal human keratinocytes (NHK); test: Immunocytofluorescence labeling of involucrin, loricrin, filaggrin on NHK culture; details: 5 ppm, 7 days, immunofluorescence
Description: Study by Immunocytofluorescence Labeling on KHN Culture
Principle: confluent NHKs (n=3) are cultured as above for 7 days in the presence or absence (control) of the peptide according to the invention then the cell layers are fixed and labels by immunocytochemistry are carried out using antibodies directed against proteins characteristic of the maturation of the epidermis: involucrine, loricrin and filaggrin. Photos are captured using a fluorescence microscope and images analyzed using appropriate software. The results are compared with those of the control. The number of cells on the mats is evaluated by the Hoechst method (DNA staining), to reduce the fluorescence value to the number of cells. A variance study and a Student's t test are carried to judge the significance of the results.
1.1.1. Induction of the formation of involucrin, loricrin and filaggrin in NEM (by immunofluorescence)/effect of 5 ppm of the peptide according to the invention: […]

[2] = system: normal human keratinocytes (NHK); test: DNA microarray (DNA-Array) gene expression on NHK culture; details: 7 ppm
Description: Study Using DNA Microarray Technology (DNA-Array) on NHK Culture
Principle: the peptide according to the invention (7 ppm) is brought into contact for 24 or 48 hours with confluent NHKs (vs. control case). Then the NHK mats are rinsed, and the cells are crushed to extract their mRNA. These mRNAs are then converted into DNA sequences which are analyzed after depositing on DNA chips and amplification by a method like QRT-PCR. The mRNA variations due to the peptide are compared to the control case (peptide solvent). The results are expressed as an expression ratio between the treated case and the control case. A ratio greater than 1.5 is as an induction of gene expression (+50% compared to the control).

[3] = system: normal human keratinocytes (NHK); test: LC-MS/MS protein study on NHK culture; details: 5 ppm; 7 days; p < 0.01
Text: Liquid Chromatography/Mass Spectrometry (LC-MS/MS) Study on NHK Culture
Principle: the same culture protocol as for the DNA-Array is used but with a longer culture time (7 days) because the protein productions take longer to be able to be detected with this method in LC-MS/MS. The peptide concentration applied to the cells is 5 ppm (vs. control case). The culture medium of the NHK (n=3) is changed every 3 days. At the end of this contact, the cells are lysed for extracting the proteins and to analyze them in the form of ground material by a method combining the action of a protease on the ground material, the separation of the fragments by liquid chromatography coupled with mass spectrometry, and then the identification and concentration of pre-existing proteins according to the nature and quantity of the fragments obtained (LC-MS/MS). To carry out LC-MS/MS analysis on equivalent amounts of proteins, the protein concentration is measured on the ground material. The results are expressed as an expression ratio between the treated case and the control case. A ratio greater than 1.5 is considered as an increase in protein production (+50% compared to the control). A study of variances and a Student's t test is carried out for judging the significance of the results.

[4] = system: normal human keratinocytes (NHK); test: Molecular biology study (qRT-PCR) on NHK culture; details: 5 ppm, 24 hours, RT-PCR
Description: Molecular Biology Study on NHK Culture
Principle: in this test, confluent keratinocytes are brought into contact with the peptide according to the invention for 24 hours. The cells are then frozen to dryness and their RNAs are extracted, converted into DNA, then analyzed by qRT-PCR (“Quantitative real time reverse transcription polymerase chain reaction”). The results are expressed as an expression ratio between the treated case and the control case. A ratio greater than 1.5 is as an induction of gene expression (+50% compared to the control). A study of variances and a Student's t test are carried out for judging the significance of the results (n=4 for each condition).

Propionibacterium acnes = Propionibacterium acnes growth inhibition test (OD 600 nm); details: for Time necessary to reach an OD of 1 (P. acnes growth): control 28 hours, anaerobic, 37° C.
Description: Propionibacterium acnes Growth Inhibition Test Principle: suspensions of Propionibacterium acnes of equivalent density are cultured in a suitable medium in the presence (test case) or absence (control case) of the peptide according to the invention, in anaerobic condition, at 37° C. Samples are taken at regular intervals to measure the OD at 600 nm for following the growth of the bacterial population over time. The growth curve of each culture is thus established. Growth of the bacterium Propionibacterium acnes: time necessary to reach an OD of 1 in the control case and in the presence of the peptide according to the invention (N=2 independent experiments; n=2 cultures per case): […]

[5] = system: normal human keratinocytes (NHK) exposed to UVB; test: Immunoenzymatic assay (ELISA) of pro-inflammatory mediators of NHK exposed to UVB
Description: Study by Immune Enzymatic Assay on NHK Culture
Principle: NHKs in culture and at confluence are brought into contact with the peptide according to the invention (or its solvent) for 24 hours in a medium allowing their survival. Then the cell layers are irradiated with UVB in a physiological buffer and again brought into contact with the products to be tested for 24 hours. At the end of this incubation, the culture media are assayed by ELISA to know the amounts of pro-inflammatory mediators produced by these cells in response to irradiation. The results are compared to the control. A cell respiration test is conducted on the fixed mat to assess the number of cells and standardize the results. A study of variances and a Student's t test are carried out for judging the significance of the results.
To test the active ingredients, keratinocytes were placed in culture under light stress conditions (application of UVB radiation) to mimic an experimental skin micro-inflammation. In this situation, a significant decrease in their secretome of inflammation mediators will be interpreted in the sense of a restorative and protective action of the skin.
Variation compared to the control of the secretome of pro-inflammatory mediators by NHKs exposed to UVB (by immunoenzymatic assay)/effect of the peptide according to the invention at 4, 6 and 8 ppm: […]

Structure (SMILES): CCCCCCCCCCCCCCCC(=O)N[C@@H](CCCCN)C(=O)N[C@H](C(=O)N[C@H](C(=O)N[C@@H](CCCCN)C(=O)N[C@@H](CO)C(=O)O)[C@@H](C)O)[C@@H](C)O [Pal-KTTKS, palmitoyl-lysyl-threonyl-threonyl-lysyl-serine] (Palmitoyl-KTTKS-OH)
- Filaggrin: % of variation/control ([1]; p < 0.01): +310%; p < 0.01
- Loricrin: % of variation/control ([1]; p < 0.01): +128%; p < 0.01
- Involucrin: % of variation/control ([1]; p < 0.05): +1057%; p < 0.05
- ABHD5 gene expression, variation vs control ([2]; 24 h contact): ×2.10
- ADGRG1 gene expression, variation vs control ([2]; 24 h contact): ×1.92
- ALOX12B gene expression, variation vs control ([2]; 24 h contact): ×2.48
- ALOXE3 gene expression, variation vs control ([2]; 24 h contact): ×2.92
- ASPRV1 gene expression, variation vs control ([2]; 24 h contact): ×3.35
- BMP2 gene expression, variation vs control ([2]; 24 h contact): ×3.63
- BMP6 gene expression, variation vs control ([2]; 24 h contact): ×13
- ELOVL4 gene expression, variation vs control ([2]; 24 h contact): ×5.41
- FN1 gene expression, variation vs control ([2]; 24 h contact): ×3.38
- GSK3B (glycogen synthase kinase 3 beta) gene expression, variation vs control ([2]; 24 h contact): ×1.64
- GSKA (glycogene synthase kinase 3 alpha) gene expression, variation vs control ([2]; 24 h contact): ×1.57
- IL37 gene expression, variation vs control ([2]; 24 h contact): ×3.60
- LCE2C gene expression, variation vs control ([2]; 24 h contact): ×26.30
- LCE3A gene expression, variation vs control ([2]; 24 h contact): ×65.26
- LCE3B gene expression, variation vs control ([2]; 24 h contact): ×123.00
- LCE3D gene expression, variation vs control ([2]; 24 h contact): ×110.46
- LCE3E gene expression, variation vs control ([2]; 24 h contact): ×135.99
- LOR gene expression, variation vs control ([2]; 24 h contact): ×1.86
- PPARD gene expression, variation vs control ([2]; 24 h contact): ×1.97
- PRSS8 gene expression, variation vs control ([2]; 24 h contact): ×3.72
- SPRR2A gene expression, variation vs control ([2]; 24 h contact): ×8.71
- SPRR2B gene expression, variation vs control ([2]; 24 h contact): ×58.44
- SPRR2C gene expression, variation vs control ([2]; 24 h contact): ×6.30
- SPRR2D gene expression, variation vs control ([2]; 24 h contact): ×7.87
- SPRR2E gene expression, variation vs control ([2]; 24 h contact): ×6.47
- SPRR2F gene expression, variation vs control ([2]; 24 h contact): ×6.00
- SPRR2G gene expression, variation vs control ([2]; 24 h contact): ×13.43
- SPRR3 gene expression, variation vs control ([2]; 24 h contact): ×1.90
- SPRR4 gene expression, variation vs control ([2]; 24 h contact): ×2.95
- TGM1 gene expression, variation vs control ([2]; 24 h contact): ×1.70
- CDSN gene expression, variation vs control ([2]; 24 hours of contact): ×3.36
- CGNL1 gene expression, variation vs control ([2]; 24 hours of contact): ×3.37
- CLDN4 gene expression, variation vs control ([2]; 24 hours of contact): ×5.16
- CLDN7 gene expression, variation vs control ([2]; 24 hours of contact): ×4.47
- CLDN12 gene expression, variation vs control ([2]; 24 hours of contact): ×2.68
- CLDN15 gene expression, variation vs control ([2]; 24 hours of contact): ×4.80
- CLDN17 gene expression, variation vs control ([2]; 24 hours of contact): ×113.20
- CLDN23 gene expression, variation vs control ([2]; 24 hours of contact): ×3.69
- KLK14 gene expression, variation vs control ([2]; 24 hours of contact): ×1.79
- OCLN gene expression, variation vs control ([2]; 24 hours of contact): ×5.91
- TJP1 gene expression, variation vs control ([2]; 24 hours of contact): ×2.15
- CERS1 gene expression, variation vs control ([2]; 48 h contact): ×3.48
- CRNN gene expression, variation vs control ([2]; 48 h contact): ×4.73
- TCHH gene expression, variation vs control ([2]; 48 h contact): ×4.87
- SOD2 gene expression, variation vs control ([2]; 48 hours contact): ×2.93
- ADGRG1 protein, variation vs control [3]: ×1.63;
- ASPRV1 protein, variation vs control [3]: ×2.35; p < 0.01
- CALM5 protein, variation vs control [3]: ×1.61; p < 0.01
- CRYAB (alpha-crystallin B) protein, variation vs control [3]: ×2.24; p < 0.01
- FLG (filaggrin) protein, variation vs control [3]: ×2.66; p < 0.01
- KRT1 protein, variation vs control [3]: ×1.58; p < 0.01
- KRT6B protein, variation vs control [3]: ×2.07; p < 0.01
- KRT9 protein, variation vs control [3]: ×1.54; p < 0.01
- KRT10 protein, variation vs control [3]: ×1.75; p < 0.01
- KRT15 protein, variation vs control [3]: ×2.02; p < 0.01
- LOR (loricrin) protein, variation vs control [3]: ×2.92; p < 0.01
- SPINK5 protein, variation vs control [3]: ×1.58; p < 0.01
- TCHH (trichohyalin) protein, variation vs control [3]: ×1.54; p < 0.01
- THBS1 protein, variation vs control [3]: ×1.98;
- CRYAB (alpha-crystallin B) gene expression, variation vs control ([4]; p < 0.01): ×3.47; p < 0.01
- Involucrine gene expression, variation vs control ([4]; p < 0.01): ×1.64; p < 0.01
- Transglutaminase 1 gene expression, variation vs control ([4]; p < 0.05): ×1.82; p < 0.05
- Time necessary to reach an OD of 1 (P. acnes growth) (Propionibacterium acnes; 6 ppm of peptide): 42 h
- Growth of Propionibacterium acnes (result in words) (Propionibacterium acnes; 6 to 12 ppm): strongly and dose-dependently inhibits the growth
- Time necessary to reach an OD of 1 (P. acnes growth) (Propionibacterium acnes; 9 ppm of peptide): 54 h
- Time necessary to reach an OD of 1 (P. acnes growth) (Propionibacterium acnes; 12 ppm of peptide): 85.5 h
- IL6 secretion, variation vs control ([5]; 4 ppm, ns): −13%
- PGE2 secretion, variation vs control ([5]; 4 ppm, p < 0.01): −41%
- IL6 secretion, variation vs control ([5]; 6 ppm, p < 0.01): −68% (p < 0.01)
- PGE2 secretion, variation vs control ([5]; 6 ppm, p < 0.01): −69% (p < 0.01)
- IL6 secretion, variation vs control ([5]; 8 ppm, p < 0.01): −84% (p < 0.01)
- PGE2 secretion, variation vs control ([5]; 8 ppm, p < 0.01): −84% (p < 0.01)
